Data reported in patent publication US6162920A, “Taxane derivatives having a pyridyl substituted C13 side chain, their preparation and their use as anti-tumor agents” (Schering Aktiensgesellschaft, priority 1996, dated 2000).
Read-outs that look alike come from different tables or passages of the source.

How the values were obtained:
[1] = system: MDA MB 435 mammary carcinoma cells; experiment: anti-proliferative effect on tumour cell line, MTT method; format: cell-based; conditions: for IC50: Homo sapiens; for inhibiting (anti-proliferative) activity compared with taxol, in words: MDA MB 435 cells, MTT, comparison with taxol
Method: The addition of the substance in several concentrations is carried out on day 1. The anti-proliferative effect is determined on day 3 using the MTT method. The IC50 values are determined therefrom.

tubulin = experiment: photometric measurement of polymerisation of tubulin and depolymerisation of microtubules (350 nm); format: biochemical, bovine; conditions: photometry, compared with taxol/control; for effect on polymerisation of tubulin: 37° C., tubulin 2 mg protein/ml; for stabilisation of microtubules (effect on depolymerisation): depolymerisation initiated by reducing temperature to 15° C.
Method: Bovine brains (each 330 g) are removed from freshly opened cows' heads and are transported in ice-cooled PM4-M buffer. Each brain is freed of the meninges and also of any thrombi and is homogenised with sufficient PM4M buffer in a cooling chamber. The homogenised material from 2 bovine brains is made up to a total volume of 1.0 liter with a total of 500 ml of buffer and is subjected to a first centrifugation (GSA rotor, 15 minutes, 4° C., 6500 g). The supernatant is freed of the sebaceous skin on the surface, filtered over 4 layers of thin muslin, transferred into counter-balanced centrifuge tubes (420 ml) and centrifuged again (Ti 45 rotor, 96000 g, 75 minutes, 4° C.). The supernatant is removed by pipette through the pellet and filtered over 6 layers of thin muslin, and a 50 mM GTP solution in 0.001M bicarbonate/PBS is added to obtain a final concentration of 1 mM. A first polymerisation is carried out in counter-balanced centrifuge tubes for 45 minutes in a water bath warmed to 37° C. The microtubules that have formed are removed by centrifugation (Ti 45 rotor, 27° C., 96000 g, 60 minutes), the supernatant is carefully removed by pipette and the very soft, opalescent pellet is carefully separated from the wall with a spatula. 40 ml of cold PM buffer are then added to the pellet, followed by homogenisation using a small glass mortar and incubation overnight (from 12 to 16 hours) on ice in counter-balanced centrifuge tubes in a cooling chamber. The depolymerisation product is removed by centrifugation in the Ti 60 rotor (4° C.; 96000 g, 60 minutes) and the supernatant is diluted with PM8-M buffer to 1:1, incubated in counter-balanced centrifuge tubes at 37° C. for 45 minutes and centrifuged again (Ti 45 rotor, 27° C., 96000 g, 60 minutes). The supernatant is carefully removed by pipette and the very soft opalescent pellet is taken up in 20 ml of cold PM buffer, homogenised carefully using a small glass mortar and incubated on ice for 30 minutes. The renewed centrifugation (Ti 60 rotor, 4° C., 96000 g, 60 minutes) gives tubulin, the protein content of which is determined according to Pearce or according to a photometric measurement at 280 nm. In the protein determination, dilutions of isolated material to PM buffer of 1:10, 1:20 and 1:40 are used. The PM buffer has own extinction and is deducted as a zero value from the determined protein content. The isolated material is diluted with PM buffer to the intended protein concentration (2 mg/ml).
The measurement of the polymerisation of tubulin and the depolymerisation of microtubules is carried out by photometry. Before the measurement, the tubulin prepared in accordance with Application Example 1 is thawed and degassed for 15 minutes. The photometer is set to a wavelength of 350 nm. 3 μl of solvent/sample, 6 μl of GTP ([…] final.) and 291 μl of tubulin (2 mg protein/ml) are pipetted into the dry and cleaned dishes (10 mm). The sample is carefully stirred (without causing air bubbles), immediately placed in dish carriages and the measuring operation is started at 37° C. Once the polymerisation maximum has been reached (solvent control and taxol 1E-5 mol/l after 20 minutes), the depolymerisation is initiated by reducing the temperature to 15° C. The measuring operation is stopped at the end of the depolymerisation and the course of the change in absorption is represented in graph form as a function of time and temperature (see FIG. 1).

[2] = MDA MB 435 mammary carcinoma cells, 5000 cells/well, substance added day 1, determined day 3, MTT, read-out: MDA-MB 435 cells IC50

SMILES | IC50 [1, 2] | inhibiting (anti-proliferative) activity compared with taxol, in words [1] | effect on polymerisation of tubulin (tubulin) | stabilisation of microtubules (effect on depolymerisation) (tubulin) | IC50 ([1]; MDA-MB-435, read-out: MDA-MB 435 cells IC50)
COC(=O)N[C@@H](c1ccncc1)[C@@H](O)C(=O)O[C@H]1C[C@@]2(O)[C@@H](OC(=O)c3ccccc3)[C@@H]3[C@]4(OC(C)=O)CO[C@@H]4C[C@H](O)[C@@]3(C)C(=O)[C@H](OC(C)=O)C(=C1C)C2(C)C [Compound 1, 3'-desphenyl-3'-(4-pyridyl)-3'-N-debenzoyl-3'-N-methoxycarbonyl-taxol] | 2 nM | activity similar to that of taxol | inhibits the polymerisation | stabilises the microtubules that have formed distinctly better than taxol | –
COC(=O)N[C@@H](c1ccncc1)[C@@H](O)C(=O)O[C@H]1C[C@@]2(O)[C@@H](OC(=O)c3ccccc3)[C@@H]3[C@]4(OC(C)=O)CO[C@@H]4C[C@@H](O)[C@@]3(C)C(=O)[C@H](OC(C)=O)C(=C1C)C2(C)C [Compound 2, 3'-desphenyl-3'-(4-pyridyl)-3'-N-debenzoyl-3'-N-methoxycarbonyl-7-epi-taxol] | 0.8 nM | significantly improved inhibiting activity compared with taxol | much more pronounced acceleration of the polymerisation of tubulin | stabilises the microtubules that have formed very much better than taxol | –
COC(=O)N[C@@H](c1ccncc1)[C@@H](O)C(=O)O[C@H]1C[C@@]2(O)[C@@H](O)[C@@H]3[C@]4(OC(C)=O)CO[C@@H]4C[C@H](O)[C@@]3(C)C(=O)[C@H](OC(C)=O)C(=C1C)C2(C)C [Compound 3, 3'-desphenyl-3'-(4-pyridyl)-2,3'-N-bisdebenzoyl-3'-N-methoxycarbonyl-taxol] | 8000 nM | – | much more pronounced acceleration of the polymerisation of tubulin | stabilises the microtubules that have formed better than taxol | –
COC(=O)N[C@@H](c1ccncc1)[C@@H](O)C(=O)O[C@H]1C[C@@]2(O)[C@@H](OC(=O)c3ccccc3)[C@@H]3[C@]4(OC(C)=O)CO[C@@H]4C[C@H](O)[C@@]3(C)C(=O)[C@H](O)C(=C1C)C2(C)C [Compound 4, 3'-Desphenyl-3'-(4-pyridyl)-3'-N-debenzoyl-3'-N-methoxycarbonyl-10-desacetyl-taxol] | 60 nM | – | does not differ from taxol in respect of the polymerisation behaviour of tubulin | stabilise the microtubules that have formed substantially better than taxol | –
CC(=O)O[C@H]1C(=O)[C@@]2(C)[C@H]([C@H](OC(=O)c3ccccc3)[C@]3(O)C[C@H](OC(=O)[C@H](O)[C@@H](NC(=O)c4ccccc4)c4ccccc4)C(C)=C1C3(C)C)[C@]1(OC(C)=O)CO[C@@H]1C[C@@H]2O [Taxol, reference compound] | – | – | speeds up the polymerisation of tubulin in comparison with the control | inhibits depolymerisation | 3 nM
